Literature values as cited in patent publication US8440231B2, “Swellable particles for drug delivery” (STC.UNM, priority 2006, dated 2013).

soluble in water: 100 mg/mL
SMILES: CC(=O)N[C@@H](CS)C(=O)O [NACS, N-acetylcysteine]
